# Measurements reported in patent US9493537B2, “Compounds with reduced ring size for use in diagnosing and treating melanoma, including metastatic melanoma and methods related to same” (STC.UNM, priority 2009, dated 2016).
# Positions of bridges follow the written chain, without caps; N, C: chain ends. Non-standard residues stand in square brackets, D forms with d. Residues, ends and D or L forms follow the SMILES beside them. No end group written: not given here. *: point of attachment. DOTA = O=C(O)CN1CCN(CC(=O)O)CCN(CC(=O)*)CCN(CC(=O)O)CC1; Nle = CCCC[C@H](N)C(=O)O
# How the values were obtained:
# MC1 receptor [1] = molecular target: T1, MC1 receptor (Mus musculus, UniProt Q01727); details: cited from earlier work
# [2] = Metabolites in urine and melanoma by RP-HPLC; assay type: in vivo, C57 mice; details: 2 h post-injection
# Method: The mouse used for the imaging study (2 h post-injection) described above was euthanized and the urine was collected for identifying the metabolites. The urinary sample was centrifuged at 16,000 g for 5 min prior to the HPLC analysis. The radioactive metabolite in the urine was analyzed by injecting aliquots of urine into the HPLC. A 20-minute gradient of 18-28% acetonitrile/20 mM HCl was used for the urine analysis.
# Both melanoma and urine were collected from the mouse used for SPECT/CT imaging to analyze the metabolites of ^111In-DOTA-GGNle-CycMSHhex in melanoma and urine. The tumor was homogenized by a VWR homogenizer for 5 mins. Equal volume of ethanol was added into the tumor sample. The tumor sample was vortexed and then centrifuged at 16,000 g for 5 mins. The supernatant was transferred into a glass test tube and purged with N2 gas for 20 mins to remove the ethanol. Aliquots of the supernatant were injected into HPLC. The urinary sample was directly centrifuged at 16,000 g for 5 mins prior to the HPLC analysis. Thereafter, aliquots of the urine were injected into HPLC. The HPLC gradient described above was used for the analyses of metabolites.
# B16/F1 melanoma [3] = assay: Biodistribution in B16/F1 melanoma-bearing C57 mice; assay type: in vivo; details: for tumor uptake blocked by NDP-MSH co-injection: 10 μg (6.07 nmol) NDP-MSH
# Method: (§1) All the animal studies were conducted in compliance with Institutional Animal Care and Use Committee approval. The mice were housed five animals per cage in sterile micro-isolator cages in a temperature- and humidity-controlled room with a 12-h light/12-h dark schedule. […] C57 mice were subcutaneously inoculated on the right flank with 1×10^6 B16/F1 cells. The weight of tumors reached approximately 0.2 g 10 days post cell inoculation. […] Groups of 5 mice were sacrificed at 0.5, 2, 4 and 24 h post-injection, and tumors and organs of interest were harvested, weighed and counted. Blood values were taken as 6.5% of the whole-body weight. […] The mice were sacrificed at 2 h post-injection. The tumor and organs of interest were harvested, weighed and counted.
# (§2) All animal studies were conducted in compliance with Institutional Animal Care and Use Committee approval. The pharmacokinetics of ^111In-DOTA-GGNle-CycMSHhex and ^111In-DOTA-GENle-CycMSHhex were determined in B16/F1 melanoma-bearing C57 female mice (Harlan, Indianapolis, Ind.). The C57 mice were subcutaneously inoculated with 1×10^6 B16/F1 cells on the right flank for each mouse to generate B16/F1 melanomas. Ten days post inoculation, the tumor weights reached approximately 0.2 g. Each melanoma-bearing mouse was injected with 0.037 MBq of ^111In-DOTA-GGNle-CycMSHhex or ^111In-DOTA-GENle-CycMSHhex via the tail vein. Groups of 5 mice were sacrificed at 0.5, 2, 4 and 24 h post-injection, and tumors and organs of interest were harvested, weighed and counted. Blood values were taken as 6.5% of the whole-body weight. The specificities of the tumor uptake of ^111In-DOTA-GGNle-CycMSHhex and ^111In-DOTA-GENle-CycMSHhex were determined by co-injecting 10 μg (6.07 nmol) of unlabeled NDP-MSH which is a linear α-MSH peptide analogue with picomolar MC1 receptor binding affinity.
# [4] = as above; assay type: in vivo; details: female, C57, mouse, iv, 0.037 MBq, total radioactivity; for tissue to tissue ratio at 4 h: 4 h post-injection
# Method: as §1, §2
# [5] = In vitro serum stability in mouse serum; assay type: in vitro ADME; details: 37° C., 24 h
# Method: After the incubation, 10 μL of 0.5% EDTA aqueous solution was added into the reaction vial to scavenge potential unbound ^111In^3+ ions. The radiolabeled peptide was purified to single species by Waters RP-HPLC (Milford, Mass.) on a Grace Vydac C-18 reverse phase analytical column (Deerfield, Ill.) using a 20-minute gradient of 18-28% acetonitrile in 20 mM HCl aqueous solution with a flow rate of 1.0 mL/min. Purified peptide sample was purged with N2 gas for 20 minutes to remove the acetonitrile. The pH of final solution was adjusted to 7.4 with 0.1 N NaOH and sterile normal saline for animal studies.
# Briefly, 50 μL of ^111InCl3 (37-74 MBq in 0.05 M HCl aqueous solution), 10 μL of 1 mg/mL peptide aqueous solution and 400 μL of 0.5 M NH4OAc (pH 4.5) were added into a reaction vial and incubated at 75° C. for 45 mins. After the incubation, 10 μL of 0.5% EDTA (ethylenediaminetetraacetic acid) aqueous solution was added into the reaction vial to scavenge potential unbound ^111In^3+ ions. The radiolabeled complexes were purified to single species by Waters RP-HPLC (Milford, Mass.) on a Grace Vydac C-18 reverse phase analytical column (Deerfield, Ill.) using the following gradient at a 1 mL/min flowrate. The mobile phase consisted of solvent A (20 mM HCl aqueous solution) and solvent B (100% CH3CN). The gradient was initiated and kept at 82:18 A/B for 3 mins followed by a linear gradient of 82:18 A/B to 72:28 A/B over 20 mins. Then, the gradient was changed from 72:28 A/B to 10:90 A/B over 3 mins followed by an additional 5 mins at 10:90 A/B. Thereafter, the gradient was changed from 10:90 AB to 82:18 AB over 3 mins. Each purified peptide sample was purged with N2 gas for 20 mins to remove the acetonitrile. The pH of the final solution was adjusted to 7.4 with 0.1 N NaOH and sterile saline for animal studies. In vitro serum stability of ^111In-DOTA-GGNle-CycMSHhex and ^111In-DOTA-GENle-CycMSHhex were determined by incubation in mouse serum at 37° C. for 24 h and monitored for degradation by RP-HPLC.
# MC1 receptor [6] = molecular target: T1, MC1 receptor; assay: In vitro competitive binding assay with ^125I-Tyr^2-NDP-MSH in B16/F1 melanoma cells; set-up: host or cells: B16/F1 murine melanoma cells; species or system murine
# Method: B16/F1 cells were harvested and seeded into a 24-well cell culture plate (5×10^5 cells/well) and incubated at 37° C. overnight. […] The reaction medium was aspirated after the incubation. The cells were rinsed twice with 0.5 mL of ice-cold pH 7.4, 0.2% BSA/0.01 M phosphate buffered saline (PBS) and lysed in 0.5 mL of 1 N NaOH for 5 minutes. The activities associated with cells were measured in a Wallac 1480 automated gamma counter (PerkinElmer, N.J.). The IC50 value of the peptide was calculated using Prism software (GraphPad Software, La Jolla, Calif.).
# B16/F1 cells in 24-well cell culture plates (5×10^5 cells/well) were incubated at room temperature (25° C.) for 2 h with approximately 60,000 cpm of ^125I-Tyr^2-NDP-MSH in the presence of 10^−12 to 10^−5 M of each peptide in 0.3 mL of binding medium {Dulbecco's Modified Eagle's Medium with 25 mM N-(2-hydroxyethyl)-piperazine-N′-(2-ethanesulfonic acid), pH 7.4, 0.2% bovine serum albumin (BSA), 0.3 mM 1,10-phenathroline}. The medium was aspirated after the incubation. […] The activities associated with cells were measured in a Wallac 1480 automated gamma counter (PerkinElmer, Waltham, Mass.). The IC50 value of each peptide was calculated using Prism software (GraphPad Software, La Jolla, Calif.).
# B16/F1 melanoma [7] = details: references 19, 20; cited from earlier work
# B16/F1 melanoma [8] = details: mouse, in vivo; cited from earlier work
# MC1 receptor [9] = molecular target: MC1 receptor (Homo sapiens, UniProt Q01726); details: references 25, 26; cited from earlier work
# Sequence of MC1 receptor (Homo sapiens, UniProt Q01726) (Q01726 whole entry): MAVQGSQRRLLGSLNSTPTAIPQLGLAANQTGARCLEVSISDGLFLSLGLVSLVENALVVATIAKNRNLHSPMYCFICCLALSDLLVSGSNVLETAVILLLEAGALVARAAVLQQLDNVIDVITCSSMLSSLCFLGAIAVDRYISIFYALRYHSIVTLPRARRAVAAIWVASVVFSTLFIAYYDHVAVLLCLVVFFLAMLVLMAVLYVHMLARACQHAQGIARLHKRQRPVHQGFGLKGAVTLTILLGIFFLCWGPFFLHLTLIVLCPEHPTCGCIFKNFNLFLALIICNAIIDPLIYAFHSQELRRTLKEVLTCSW
# T1 sequence (Q01727 whole entry): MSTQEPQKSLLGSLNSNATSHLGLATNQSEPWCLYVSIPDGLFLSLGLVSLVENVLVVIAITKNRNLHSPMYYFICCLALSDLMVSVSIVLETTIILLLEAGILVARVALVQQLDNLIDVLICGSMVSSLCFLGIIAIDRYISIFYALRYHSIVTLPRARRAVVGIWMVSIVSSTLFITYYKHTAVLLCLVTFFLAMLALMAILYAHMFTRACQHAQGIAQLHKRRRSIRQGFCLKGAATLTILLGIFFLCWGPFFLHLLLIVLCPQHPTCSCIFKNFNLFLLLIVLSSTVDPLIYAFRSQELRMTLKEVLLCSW
compound,measurement,setting,value
"[Nle^4, D-Phe^7]-α-MSH [NDP-MSH]",affinity for the MC1 receptor,MC1 receptor [1],picomolar
"CCCC[C@H](NC(=O)CNC(=O)CNC(=O)CN1CCN(CC(=O)O)CCN(CC(=O)O)CCN(CC(=O)O)CC1)C(=O)N[C@H]1CC(=O)NCCCC[C@@H](C(N)=O)NC(=O)[C@H](Cc2c[nH]c3ccccc23)NC(=O)[C@H](CCCNC(=N)N)NC(=O)[C@@H](Cc2ccccc2)NC(=O)[C@H](Cc2c[nH]cn2)NC1=O [^111In-DOTA-GGNle-CycMSHhex, metal not drawn] ({DOTA}-GG[Nle]DH[dF]RWK-NH2; lactam 4-9)",melanoma metabolites by HPLC,[2]; tumor,remained intact
same,urinary metabolites by HPLC,[2]; urine,remained intact
same,tumor uptake blocked by NDP-MSH co-injection,B16/F1 melanoma [3]; 2 h post-injection,Approximately 98%
same,Kidneys uptake,B16/F1 melanoma [3]; 0.5 h post-injection,15.19±2.75 % ID/g
same,Tumor uptake,B16/F1 melanoma [3]; 0.5 h post-injection,18.39±2.22 % ID/g
same,Tumor/Skin uptake ratio,B16/F1 melanoma [3]; 0.5 h post-injection,8.51
same,"tumor uptake, times that of ^111In-DOTA-GENle-CycMSHhex",B16/F1 melanoma [3]; 0.5 h post-injection,2 times
same,Kidneys uptake,B16/F1 melanoma [3]; 2 h post-injection,6.84±0.92 % ID/g
same,Tumor uptake,B16/F1 melanoma [3]; 2 h post-injection,19.05±5.04 % ID/g
same,Tumor/Skin uptake ratio,B16/F1 melanoma [3]; 2 h post-injection,70.56
same,"tumor uptake, times that of ^111In-DOTA-GENle-CycMSHhex",B16/F1 melanoma [3]; 2 h post-injection,2.5 times
same,Tumor uptake,B16/F1 melanoma [3]; 4 h post-injection,18.6±3.56 % ID/g
same,Tumor/Liver uptake ratio,B16/F1 melanoma [3]; 4 h post-injection,31.0
same,Tumor/Skin uptake ratio,B16/F1 melanoma [3]; 4 h post-injection,68.89
same,"tumor uptake, times that of ^111In-DOTA-GENle-CycMSHhex",B16/F1 melanoma [3]; 4 h post-injection,3 times
same,Tumor uptake,B16/F1 melanoma [3]; 24 h post-injection,6.77±0.84 % ID/g
same,Tumor/Skin uptake ratio,B16/F1 melanoma [3]; 24 h post-injection,26.04
same,tissue uptake at 2 h,"[4]; liver, 2 h post-injection, read-out: Liver uptake",< 0.61 %ID/g
same,tissue to tissue ratio at 4 h,"[4]; tumor and kidney, tumor/kidney uptake ratio, times that of ^111In-DOTA-Nle-CycMSHhex",1.61
same,tissue to tissue ratio at 2 h,"[4]; tumor and kidneys, tumor/kidney uptake ratio, times that of ^111In-DOTA-Nle-CycMSHhex, 2 h post-injection",1.37
same,tissue to tissue ratio at 4 h,"[4]; tumor and liver, tumor/liver uptake ratio, times that of ^111In-DOTA-Nle-CycMSHhex",3.13
same,serum stability by RP-HPLC,[5],stable
"CCCC[C@H](NC(=O)[C@H](CCC(=O)O)NC(=O)CNC(=O)CN1CCN(CC(=O)O)CCN(CC(=O)O)CCN(CC(=O)O)CC1)C(=O)N[C@H]1CC(=O)NCCCC[C@@H](C(N)=O)NC(=O)[C@H](Cc2c[nH]c3ccccc23)NC(=O)[C@H](CCCNC(=N)N)NC(=O)[C@@H](Cc2ccccc2)NC(=O)[C@H](Cc2c[nH]cn2)NC1=O [^111In-DOTA-GENle-CycMSHhex, metal not drawn] ({DOTA}-GE[Nle]DH[dF]RWK-NH2; lactam 4-9)",tumor uptake blocked by NDP-MSH co-injection,B16/F1 melanoma [3]; 2 h post-injection,95.6%
same,Kidneys uptake,B16/F1 melanoma [3]; 0.5 h post-injection,9.06±2.20 % ID/g
same,Tumor/Skin uptake ratio,B16/F1 melanoma [3]; 0.5 h post-injection,7.21
same,Kidneys uptake,B16/F1 melanoma [3]; 2 h post-injection,5.54±0.63 % ID/g
same,Tumor/Skin uptake ratio,B16/F1 melanoma [3]; 2 h post-injection,24.30
same,Tumor/Skin uptake ratio,B16/F1 melanoma [3]; 4 h post-injection,44.17
same,Tumor/Skin uptake ratio,B16/F1 melanoma [3]; 24 h post-injection,27.50
same,serum stability by RP-HPLC,[5],stable
CCCC[C@H](NC(=O)CN1CCN(CC(=O)O)CCN(CC(=O)O)CCN(CC(=O)O)CC1)C(=O)NCC(=O)N[C@@H](CCC(=O)O)C(=O)N[C@H]1CC(=O)NCCCC[C@@H](C(N)=O)NC(=O)[C@H](Cc2c[nH]c3ccccc23)NC(=O)[C@H](CCCNC(=N)N)NC(=O)[C@@H](Cc2ccccc2)NC(=O)[C@H](Cc2c[nH]cn2)NC1=O [DOTA-NleGE-CycMSHhex] ({DOTA}-[Nle]GEDH[dF]RWK-NH2; lactam 4-9),lower receptor binding affinity than DOTA-GGNle-CycMSHhex and DOTA-GENle-CycMSHhex,MC1 receptor [6],at least 78 fold
"{DOTA}-GEK[Nle]EH[dF]RWGRPVD (lactam 3-14) [^111In-DOTA-GlyGlu-CycMSH, reference compound]",visualization of flank primary and pulmonary metastatic melanoma lesions by SPECT/CT,B16/F1 melanoma [7],clearly visualized
same,tumor radioactivity at 2 h remaining in tumors at 24 h,B16/F1 melanoma [8],22.8%
Ac-Nle-c[Asp-His-DPhe-Arg-Trp-Lys(CONH2)] [MT-II],MC1 receptor binding affinity compared with the native α-MSH peptide,MC1 receptor [9],higher
same,MC1 receptor dissociation rate compared with the native α-MSH peptide,MC1 receptor [9],slower
